PubChem BioAssay (NCI)
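Results reflect a 48-hour exposure of cells in 96-well plates to compound at five concentrations. The concentration for 50% growth inhibition is given as GI50. TGI denotes the concentration required for complete inhibition of growth.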

How the values were obtained:
Experiment in all cases: NCI tumour cell line growth inhibition, 48 h
OVCAR-5 ovarian = test system: OVCAR-5 ovarian
PC-3 prostate = test system: PC-3 prostate
K-562 leukemia = test system: K-562 leukemia
U251 CNS = test system: U251 CNS
COLO 205 colon = test system: COLO 205 colon
LOX IMVI melanoma = test system: LOX IMVI melanoma
DU-145 prostate = test system: DU-145 prostate
IGROV1 ovarian = test system: IGROV1 ovarian
NCI-H522 lung = test system: NCI-H522 lung
HCC-2998 colon = test system: HCC-2998 colon

## O=C1CC2OCC=C3CN4CCC56c7ccccc7N1C5C2C3CC46 (stereo not given) (tested in a mixture with another compound)
OVCAR-5 ovarian
  GI50: > 50 µg/mL
  TGI: > 50 µg/mL
PC-3 prostate
  GI50: > 50 µg/mL
  TGI: > 50 µg/mL
K-562 leukemia
  GI50: 3.44 µg/mL
  TGI: > 50 µg/mL
U251 CNS
  GI50: > 50 µg/mL
  TGI: > 50 µg/mL
COLO 205 colon
  GI50: > 50 µg/mL
  TGI: > 50 µg/mL
LOX IMVI melanoma
  GI50: > 50 µg/mL
  TGI: > 50 µg/mL
DU-145 prostate
  GI50: > 50 µg/mL
  TGI: > 50 µg/mL
IGROV1 ovarian
  GI50: > 50 µg/mL
  TGI: > 50 µg/mL
NCI-H522 lung
  GI50: > 50 µg/mL
  TGI: > 50 µg/mL

## CC1CCC2[C@@H](C)COC3O[C@]4(C)CCC1C32OO4 (stereo not given in full)
OVCAR-5 ovarian
  TGI: > 100 µM
HCC-2998 colon
  TGI: > 100 µM
K-562 leukemia
  TGI: > 100 µM
U251 CNS
  TGI: > 100 µM
COLO 205 colon
  TGI: > 100 µM
LOX IMVI melanoma
  TGI: > 100 µM
IGROV1 ovarian
  TGI: > 100 µM
NCI-H522 lung
  TGI: > 100 µM

## O=[N+]([O-])c1ccc2nc(=S)[nH]n2c1
OVCAR-5 ovarian
  TGI: > 100 µM
HCC-2998 colon
  TGI: > 100 µM
K-562 leukemia
  TGI: > 100 µM
U251 CNS
  TGI: > 100 µM
COLO 205 colon
  TGI: > 100 µM
LOX IMVI melanoma
  TGI: > 100 µM
DU-145 prostate
  TGI: > 100 µM
IGROV1 ovarian
  TGI: > 100 µM
NCI-H522 lung
  TGI: > 100 µM

## CC1(C)N=C(N)N=C(N)N1c1ccc(CCC(=O)Nc2cccc(S(=O)(=O)F)c2)cc1
OVCAR-5 ovarian
  GI50: > 100 µM
  TGI: > 100 µM
PC-3 prostate
  GI50: 0.597 µM
  TGI: > 100 µM
K-562 leukemia
  GI50: 1.35 µM
  TGI: > 100 µM
U251 CNS
  GI50: 4.98 µM
  TGI: > 100 µM
COLO 205 colon
  GI50: 41.1 µM
  TGI: > 100 µM
LOX IMVI melanoma
  GI50: 3.54 µM
  TGI: > 100 µM
DU-145 prostate
  GI50: 5.81 µM
  TGI: > 100 µM
IGROV1 ovarian
  GI50: 1.09 µM
  TGI: 5 µM

## O=S1Cc2ccccc2CSS1 (stereo not given)
OVCAR-5 ovarian
  TGI: 37.4 µM
HCC-2998 colon
  TGI: 73.7 µM
K-562 leukemia
  TGI: 38.1 µM
U251 CNS
  TGI: 31.9 µM
COLO 205 colon
  TGI: 27.3 µM
LOX IMVI melanoma
  TGI: 17.3 µM
IGROV1 ovarian
  TGI: > 100 µM
NCI-H522 lung
  TGI: 19.4 µM

## Nc1ncnc2c1ncn2C1OC(C(=O)OCCO)C(O)C1O (stereo not given)
OVCAR-5 ovarian
  TGI: > 100 µM
PC-3 prostate
  TGI: > 100 µM
K-562 leukemia
  TGI: > 100 µM
U251 CNS
  TGI: > 100 µM
COLO 205 colon
  TGI: > 100 µM
LOX IMVI melanoma
  TGI: > 100 µM
DU-145 prostate
  TGI: > 100 µM
IGROV1 ovarian
  TGI: > 100 µM
NCI-H522 lung
  TGI: > 100 µM

## CC(=O)Nc1ccc(OCC(O)CO)cc1 (stereo not given)
OVCAR-5 ovarian
  TGI: > 100 µM
HCC-2998 colon
  TGI: > 100 µM
K-562 leukemia
  TGI: > 100 µM
U251 CNS
  TGI: > 100 µM
COLO 205 colon
  TGI: > 100 µM
LOX IMVI melanoma
  TGI: 73.1 µM
IGROV1 ovarian
  TGI: > 100 µM
NCI-H522 lung
  TGI: > 100 µM

## Cc1ccc(SSCCCCS(=O)O)cc1
OVCAR-5 ovarian
  TGI: 96.3 µM
HCC-2998 colon
  TGI: 66.3 µM
K-562 leukemia
  TGI: > 100 µM
U251 CNS
  TGI: 39.2 µM
COLO 205 colon
  TGI: 39.7 µM
LOX IMVI melanoma
  TGI: 76.1 µM
IGROV1 ovarian
  TGI: 18.8 µM
NCI-H522 lung
  TGI: 27.6 µM

## Cc1ccccc1NC(=O)CC(=O)n1nc(-c2ccccc2)c(N=Nc2ccc([N+](=O)[O-])cc2)c1-c1ccccc1
OVCAR-5 ovarian
  TGI: > 100 µM
HCC-2998 colon
  TGI: 51.3 µM
K-562 leukemia
  TGI: 48.9 µM
U251 CNS
  TGI: 34.6 µM
COLO 205 colon
  TGI: 30.5 µM
LOX IMVI melanoma
  TGI: 46.6 µM
IGROV1 ovarian
  TGI: > 100 µM
NCI-H522 lung
  TGI: 45.5 µM

## C(=NCCN=Cc1cccc2ccccc12)c1cccc2ccccc12
OVCAR-5 ovarian
  TGI: > 100 µM
HCC-2998 colon
  TGI: > 100 µM
K-562 leukemia
  TGI: > 100 µM
U251 CNS
  TGI: > 100 µM
COLO 205 colon
  TGI: > 100 µM
IGROV1 ovarian
  TGI: > 100 µM
NCI-H522 lung
  TGI: > 100 µM

## C#Cc1ccccc1N1C(=O)C=CC1=O
OVCAR-5 ovarian
  TGI: > 100 µM
K-562 leukemia
  TGI: > 100 µM
U251 CNS
  TGI: > 100 µM
COLO 205 colon
  TGI: > 100 µM
IGROV1 ovarian
  TGI: > 100 µM
NCI-H522 lung
  TGI: > 100 µM

## ClCCCN1CCCCC1CCl (stereo not given)
OVCAR-5 ovarian
  TGI: > 100 µM
HCC-2998 colon
  TGI: > 100 µM
K-562 leukemia
  TGI: > 100 µM
U251 CNS
  TGI: > 100 µM
COLO 205 colon
  TGI: > 100 µM
LOX IMVI melanoma
  TGI: > 100 µM
IGROV1 ovarian
  TGI: > 100 µM
NCI-H522 lung
  TGI: > 100 µM

## CCOc1ccccc1NC(=O)C(=O)c1c(O)c2ccc(O)cc2oc1=O
OVCAR-5 ovarian
  TGI: > 100 µM
HCC-2998 colon
  TGI: > 100 µM
K-562 leukemia
  TGI: > 100 µM
U251 CNS
  TGI: > 100 µM
COLO 205 colon
  TGI: > 100 µM
LOX IMVI melanoma
  TGI: > 100 µM
IGROV1 ovarian
  TGI: > 100 µM
NCI-H522 lung
  TGI: > 100 µM

## CC(=O)OC1(C#N)CC2OC1C1NC21 (stereo not given)
OVCAR-5 ovarian
  TGI: > 100 µM
HCC-2998 colon
  TGI: > 100 µM
K-562 leukemia
  TGI: > 100 µM
U251 CNS
  TGI: > 100 µM
COLO 205 colon
  TGI: > 100 µM
LOX IMVI melanoma
  TGI: > 100 µM
IGROV1 ovarian
  TGI: > 100 µM
NCI-H522 lung
  TGI: > 100 µM

## CN/N=C(/CC(=O)c1sc(NNC(C)=O)nc1C)C(=O)Nc1ccc(OC)cc1OC
OVCAR-5 ovarian
  TGI: > 100 µM
HCC-2998 colon
  TGI: > 100 µM
K-562 leukemia
  TGI: > 100 µM
U251 CNS
  TGI: > 100 µM
COLO 205 colon
  TGI: > 100 µM
LOX IMVI melanoma
  TGI: > 100 µM
IGROV1 ovarian
  TGI: > 100 µM
NCI-H522 lung
  TGI: > 100 µM

## COc1c(OC2OC(CO)C(O)C(O)C2O)cc2c(c1OC)-c1ccc(OC)c(=O)cc1[C@@H](NC(C)=O)CC2 (stereo not given in full)
OVCAR-5 ovarian
  TGI: > 100 µM
HCC-2998 colon
  TGI: > 100 µM
K-562 leukemia
  TGI: > 100 µM
U251 CNS
  TGI: > 100 µM
COLO 205 colon
  TGI: > 100 µM
LOX IMVI melanoma
  TGI: > 100 µM
IGROV1 ovarian
  TGI: > 100 µM
NCI-H522 lung
  TGI: 99.3 µM

## NCCNc1ncnc2ccc(Cl)cc12
OVCAR-5 ovarian
  TGI: > 100 µM
PC-3 prostate
  TGI: > 100 µM
K-562 leukemia
  TGI: > 100 µM
U251 CNS
  TGI: > 100 µM
COLO 205 colon
  TGI: > 100 µM
LOX IMVI melanoma
  TGI: > 100 µM
DU-145 prostate
  TGI: > 100 µM
IGROV1 ovarian
  TGI: > 100 µM
NCI-H522 lung
  TGI: > 100 µM

## NNC(=O)N/N=C1/C(=O)N(c2ccc(Cl)c(Cl)c2)C(=O)C(=O)C1c1nc2ccccc2o1 (stereo not given)
OVCAR-5 ovarian
  TGI: > 100 µM
HCC-2998 colon
  TGI: > 100 µM
K-562 leukemia
  TGI: > 100 µM
U251 CNS
  TGI: > 100 µM
COLO 205 colon
  TGI: > 100 µM
LOX IMVI melanoma
  TGI: > 100 µM
IGROV1 ovarian
  TGI: > 100 µM
NCI-H522 lung
  TGI: > 100 µM

## O=C(Nc1ccc(N2CCNCC2)cn1)c1[nH]ncc1Nc1ncnc2sc3c(c12)CCC3
HCC-2998 colon
  GI50: 14.1 µM
  TGI: 36.2 µM
K-562 leukemia
  GI50: 0.207 µM
  TGI: 0.498 µM
COLO 205 colon
  GI50: 2.11 µM
  TGI: 6.97 µM
DU-145 prostate
  GI50: 1.6 µM
  TGI: 3.06 µM
NCI-H522 lung
  GI50: 1.92 µM
  TGI: 4.82 µM

## CC1=C(C(=O)NCc2ccccc2)C(c2ccccc2O)C(C(=O)NCc2ccccc2)=C(C)N1
OVCAR-5 ovarian
  TGI: 38 µM
HCC-2998 colon
  TGI: 35.9 µM
K-562 leukemia
  TGI: 88.9 µM
U251 CNS
  TGI: 29.5 µM
COLO 205 colon
  TGI: 30.9 µM
LOX IMVI melanoma
  TGI: 30.1 µM
IGROV1 ovarian
  TGI: 39 µM
NCI-H522 lung
  TGI: 31.4 µM

## COc1ccc(S(=O)(=O)N/N=C/CN2C(=O)c3ccccc3C2=O)cc1
HCC-2998 colon
  TGI: > 100 µM
K-562 leukemia
  TGI: > 100 µM
U251 CNS
  TGI: > 100 µM
COLO 205 colon
  TGI: > 100 µM
LOX IMVI melanoma
  TGI: > 100 µM
IGROV1 ovarian
  TGI: > 100 µM
NCI-H522 lung
  TGI: > 100 µM

## NC(N)=NC(N)=NCc1ccco1
OVCAR-5 ovarian
  GI50: > 1250 µM
  TGI: > 1250 µM
HCC-2998 colon
  GI50: > 1250 µM
  TGI: > 1250 µM
K-562 leukemia
  GI50: 264 µM
  TGI: > 1250 µM
U251 CNS
  GI50: 516 µM
  TGI: > 1250 µM
COLO 205 colon
  GI50: > 1250 µM
  TGI: > 1250 µM
LOX IMVI melanoma
  GI50: 581 µM
  TGI: > 1250 µM
DU-145 prostate
  GI50: > 1250 µM
  TGI: > 1250 µM
IGROV1 ovarian
  GI50: 854 µM
  TGI: > 1250 µM
NCI-H522 lung
  GI50: > 1250 µM
  TGI: > 1250 µM

## Cc1ccc(NC(=O)CC2C(=O)Nc3ccccc3S2(=O)=O)cc1C (stereo not given)
OVCAR-5 ovarian
  TGI: > 100 µM
HCC-2998 colon
  TGI: > 100 µM
K-562 leukemia
  TGI: > 100 µM
U251 CNS
  TGI: > 100 µM
LOX IMVI melanoma
  TGI: > 100 µM
IGROV1 ovarian
  TGI: > 100 µM
NCI-H522 lung
  TGI: > 100 µM

## CCOc1cc[n+](C(=C=[N-])C#N)cc1
OVCAR-5 ovarian
  TGI: > 100 µM
HCC-2998 colon
  TGI: > 100 µM
K-562 leukemia
  TGI: > 100 µM
U251 CNS
  TGI: > 100 µM
COLO 205 colon
  TGI: > 100 µM
LOX IMVI melanoma
  TGI: > 100 µM
IGROV1 ovarian
  TGI: > 100 µM
NCI-H522 lung
  TGI: > 100 µM
